Source: patent US10959432B2, “Microbiocidal oxadiazole derivatives” (Syngenta Participations AG, priority 2016, dated 2021)
Read-outs that look alike come from different tables or passages of the source.

Assays:
[1] = test system: Phakopsora pachyrhizi; test: Fungicidal activity against Phakopsora pachyrhizi / soybean / leaf disc preventative (Asian soybean rust); assay type: in vivo; details: foliar, read-out: disease control compared to untreated control leaf disks
Procedure: (§1) Leaf disks or leaf segments of various plant species are cut from plants grown in a greenhouse. The cut leaf disks or segments are placed in multiwell plates (24-well format) onto water agar. The leaf disks are sprayed with a test solution before (preventative) or after (curative) inoculation. Compounds to be tested are prepared as DMSO solutions (max. 10 mg/ml) which are diluted to the appropriate concentration with 0.025% Tween20 just before spraying. The inoculated leaf disks or segments are incubated under defined conditions (temperature, relative humidity, light, etc.) according to the respective test system. A single evaluation of disease level is carried out 3 to 14 days after inoculation, depending on the pathosystem. Percent disease control relative to the untreated check leaf disks or segments is then calculated. General Examples of Liquid Culture Tests in Well Plates:
Example 3: Fungicidal Activity Against Phakopsora pachyrhizi/Soybean/Leaf Disc Preventative (Asian Soybean Rust)
Soybean leaf disks are placed on water agar in multiwell plates (24-well format) and sprayed with the formulated test compound diluted in water. One day after application leaf discs are inoculated by spraying a spore suspension on the lower leaf surface. After an incubation period in a climate cabinet of 24-36 hours in darkness at 20° C. and 75% rh leaf disc are kept at 20° C. with 12 h light/day and 75% rh. The activity of a compound is assessed as percent disease control compared to untreated when an appropriate level of disease damage appears in untreated check leaf disks (12 to 14 days after application).
(§2) The following compounds at 200 ppm in the applied formulation give at least 80% disease control in this test when compared to untreated control leaf disks under the same conditions, which show extensive disease development.

[2] = test system: Puccinia recondita f. sp. tritici; test: Fungicidal activity against Puccinia recondita f. sp. tritici / wheat / leaf disc curative (brown rust); assay type: in vivo; details: foliar, 200 ppm in the applied formulation, wheat leaf segments cv. Kanzler, curative (applied 1 day after inoculation), assessed 6 to 8 days after application, read-out: disease control compared to untreated control leaf disks
Procedure: as §1
Example 2: Fungicidal Activity Against Puccinia recondita f. sp. Tritici/Wheat/Leaf Disc Curative (Brown Rust)
Wheat leaf segments cv. Kanzler are placed on agar in multiwell plates (24-well format). The leaf segments are then inoculated with a spore suspension of the fungus. Plates were stored in darkness at 19° C. and 75% relative humidity. The formulated test compound diluted in water was applied 1 day after inoculation. The leaf segments were incubated at 19° C. and 75% relative humidity under a light regime of 12 hours light/12 hours darkness in a climate cabinet and the activity of a compound was assessed as percent disease control compared to untreated when an appropriate level of disease damage appears in untreated check leaf segments (6 to 8 days after application).
as §2

[3] = test system: Glomerella laqenarium (Colletotrichum lagenarium); test: Fungicidal activity against Glomerella lagenarium (Colletotrichum lagenarium) liquid culture / cucumber / preventative (anthracnose); assay type: cell-based; details: Colletotrichum orbiculare, read-out: disease control compared to untreated control (inhibition of growth measured photometrically)
Procedure: Mycelia fragments or conidia suspensions of a fungus prepared either freshly from liquid cultures of the fungus or from cryogenic storage, are directly mixed into nutrient broth. DMSO solutions of the test compound (max. 10 mg/ml) are diluted with 0.025% Tween20 by a factor of 50 and 10 μl of this solution is pipetted into a microtiter plate (96-well format). The nutrient broth containing the fungal spores/mycelia fragments is then added to give an end concentration of the tested compound. The test plates are incubated in the dark at 24° C. and 96% relative humidity. The inhibition of fungal growth is determined photometrically after 2 to 7 days, depending on the pathosystem, and percent antifungal activity relative to the untreated check is calculated.
Example 4: Fungicidal Activity Against Glomerella laqenarium (Colletotrichum lagenarium) Liquid Culture/Cucumber/Preventative (Anthracnose)
Conidia of the fungus from cryogenic storage are directly mixed into nutrient broth (PDB—potato dextrose broth). After placing a (DMSO) solution of test compound into a microtiter plate (96-well format), the nutrient broth containing the fungal spores is added. The test plates are incubated at 24° C. and the inhibition of growth is measured photometrically 3 to 4 days after application.
The following compounds at 20 ppm in the applied formulation give at least 80% disease control in this test when compared to untreated control under the same conditions, which show extensive disease development.

[4] = test system: Puccinia recondita f. sp. tritici; test: Fungicidal activity against Puccinia recondita f. sp. tritici / wheat / leaf disc preventative (brown rust); assay type: in vivo; details: foliar, 200 ppm in the applied formulation, wheat leaf segments cv. Kanzler, preventative (inoculated 1 day after application), assessed 7 to 9 days after application, read-out: disease control compared to untreated control leaf disks
Procedure: as §1
Example 1: Fungicidal Activity Against Puccinia recondita f. sp. tritici/Wheat/Leaf Disc Preventative (Brown Rust)
Wheat leaf segments cv. Kanzler were placed on agar in multiwell plates (24-well format) and sprayed with the formulated test compound diluted in water. The leaf disks were inoculated with a spore suspension of the fungus 1 day after application. The inoculated leaf segments were incubated at 19C and 75% relative humidity (rh) under a light regime of 12 hours light/12 hours darkness in a climate cabinet and the activity of a compound was assessed as percent disease control compared to untreated when an appropriate level of disease damage appears in untreated check leaf segments (7 to 9 days after application).
as §2

[5] = 200 ppm in the applied formulation, soybean leaf disks, preventative (inoculated one day after application), assessed 12 to 14 days after application
[6] = 20 ppm in the applied formulation, liquid culture in PDB, 24° C., 3 to 4 days after application

Row | SMILES | pest or weed control at 200 ppm [1, 5] | inhibition at 20 ppm [3, 6] | also measured
1 | CC(C)(CCO)NC(=O)c1ccc(-c2noc(C(F)(F)F)n2)cc1 [Compound 3a.42, N-(3-hydroxy-1,1-dimethyl-propyl)-4-[5-(trifluoromethyl)-1,2,4-oxadiazol-3-yl]benzamide] | ≥ 80% | – | –
2 | COC1=NS(C)=NC(N(C)C(=O)c2ccc(-c3noc(C(F)(F)F)n3)cc2F)=N1 (stereo not shown) [Compound 5b.8, 2-fluoro-N-(5-methoxy-1-methyl-1-thia-2,4,6-triazacyclohexa-2,4,6-trien-3-yl)-N-methyl-4-[5-(trifluoromethyl)-1,2,4-oxadiazol-3-yl]benzamide] | ≥ 80% | – | –
3 | CN(CCCO)C(=O)c1ccc(-c2noc(C(F)(F)F)n2)cc1 [Compound 3a.6, N-(3-hydroxypropyl)-N-methyl-4-[5-(trifluoromethyl)-1,2,4-oxadiazol-3-yl]benzamide] | ≥ 80% | – | pest or weed control at 200 ppm [2]: ≥ 80%
4 | CN(CCCO)C(=O)c1ccc(-c2noc(C(F)(F)F)n2)cc1F [Compound 3b.9, 2-fluoro-N-(3-hydroxypropyl)-N-methyl-4-[5-(trifluoromethyl)-1,2,4-oxadiazol-3-yl]benzamide] | ≥ 80% | – | pest or weed control at 200 ppm [2]: ≥ 80%
5 | CCC(CC)CNC(=O)c1ccc(-c2noc(C(F)(F)F)n2)cc1F [Compound 3b.42, N-(2-ethylbutyl)-2-fluoro-4-[5-(trifluoromethyl)-1,2,4-oxadiazol-3-yl]benzamide] | ≥ 80% | – | –
6 | CN(CCCCO)C(=O)c1ccc(-c2noc(C(F)(F)F)n2)cc1 [Compound 3a.19, N-(4-hydroxybutyl)-N-methyl-4-[5-(trifluoromethyl)-1,2,4-oxadiazol-3-yl]benzamide] | ≥ 80% | – | –
7 | CCC(CC)CNC(=O)c1ccc(-c2noc(C(F)(F)F)n2)cc1 [Compound 3a.39, N-(2-ethylbutyl)-4-[5-(trifluoromethyl)-1,2,4-oxadiazol-3-yl]benzamide] | ≥ 80% | ≥ 80% | –
8 | CC(C#N)(NC(=O)c1ccc(-c2noc(C(F)(F)F)n2)cc1F)C1CC1 (stereo not shown) [Compound 2b.9, N-(1-cyano-1-cyclopropyl-ethyl)-2-fluoro-4-[5-(trifluoromethyl)-1,2,4-oxadiazol-3-yl]benzamide] | ≥ 80% | – | pest or weed control at 200 ppm [2]: ≥ 80%; pest or weed control at 200 ppm [4]: ≥ 80%
9 | CCCN(CC1CC1)C(=O)c1ccc(-c2noc(C(F)(F)F)n2)cc1 [Compound 2a.1, N-(cyclopropylmethyl)-N-propyl-4-[5-(trifluoromethyl)-1,2,4-oxadiazol-3-yl]benzamide] | ≥ 80% | ≥ 80% | –
10 | O=C(NCCCCCO)c1ccc(-c2noc(C(F)(F)F)n2)cc1 [Compound 3a.21, N-(5-hydroxypentyl)-4-[5-(trifluoromethyl)-1,2,4-oxadiazol-3-yl]benzamide] | ≥ 80% | – | pest or weed control at 200 ppm [2]: ≥ 80%
11 | CCCCCCNC(=O)c1ccc(-c2noc(C(F)(F)F)n2)cc1 [Compound 3a.29, N-hexyl-4-[5-(trifluoromethyl)-1,2,4-oxadiazol-3-yl]benzamide] | – | – | inhibition at 20 ppm [3]: ≥ 80%; pest or weed control at 200 ppm [1]: ≥ 80%
12 | CCCCN(CCO)C(=O)c1ccc(-c2noc(C(F)(F)F)n2)cc1 [Compound 3a.25, N-butyl-N-(2-hydroxyethyl)-4-[5-(trifluoromethyl)-1,2,4-oxadiazol-3-yl]benzamide] | ≥ 80% | ≥ 80% | –
13 | O=C(Nc1cn[nH]c1)c1ccc(-c2noc(C(F)(F)F)n2)cc1 [Compound 5a.3, N-(1H-pyrazol-4-yl)-4-[5-(trifluoromethyl)-1,2,4-oxadiazol-3-yl]benzamide] | ≥ 80% | – | –
14 | CN(CCO)C(=O)c1ccc(-c2noc(C(F)(F)F)n2)cc1F [Compound 3b.25, 2-fluoro-N-(2-hydroxyethyl)-N-methyl-4-[5-(trifluoromethyl)-1,2,4-oxadiazol-3-yl]benzamide] | ≥ 80% | – | –
15 | CN(C(=O)c1ccc(-c2noc(C(F)(F)F)n2)cc1)C1CCN(C(=O)OC(C)(C)C)C1 (stereo not shown) [Compound 1a.1, tert-butyl 3-[methyl-[4-[5-(trifluoromethyl)-1,2,4-oxadiazol-3-yl]benzoyl]amino]pyrrolidine-1-carboxylate] | ≥ 80% | ≥ 80% | pest or weed control at 200 ppm [4]: ≥ 80%
16 | CCOC(=O)CC(C)NC(=O)c1ccc(-c2noc(C(F)(F)F)n2)cc1 (stereo not shown) [Compound 3a.26, ethyl 3-[[4-[5-(trifluoromethyl)-1,2,4-oxadiazol-3-yl]benzoyl]amino]butanoate] | ≥ 80% | ≥ 80% | pest or weed control at 200 ppm [4]: ≥ 80%
17 | COCCN(C(=O)c1ccc(-c2noc(C(F)(F)F)n2)cc1F)C(C)C [Compound 3b.13, 2-fluoro-N-isopropyl-N-(2-methoxyethyl)-4-[5-(trifluoromethyl)-1,2,4-oxadiazol-3-yl]benzamide] | ≥ 80% | ≥ 80% | –
18 | CC(C)CN(CC(C)C)C(=O)c1ccc(-c2noc(C(F)(F)F)n2)cc1 [Compound 3a.23, N,N-diisobutyl-4-[5-(trifluoromethyl)-1,2,4-oxadiazol-3-yl]benzamide] | ≥ 80% | ≥ 80% | –
19 | CN(CC(C)(C)CO)C(=O)c1ccc(-c2noc(C(F)(F)F)n2)cc1 [Compound 3a.8, N-(3-hydroxy-2,2-dimethyl-propyl)-N-methyl-4-[5-(trifluoromethyl)-1,2,4-oxadiazol-3-yl]benzamide] | ≥ 80% | ≥ 80% | –
20 | CC(CCO)NC(=O)c1ccc(-c2noc(C(F)(F)F)n2)cc1 (stereo not shown) [Compound 3a.15, N-(3-hydroxy-1-methyl-propyl)-4-[5-(trifluoromethyl)-1,2,4-oxadiazol-3-yl]benzamide] | ≥ 80% | – | pest or weed control at 200 ppm [2]: ≥ 80%
21 | O=C(NCCCCO)c1ccc(-c2noc(C(F)(F)F)n2)cc1F [Compound 3b.26, 2-fluoro-N-(4-hydroxybutyl)-4-[5-(trifluoromethyl)-1,2,4-oxadiazol-3-yl]benzamide] | ≥ 80% | ≥ 80% | pest or weed control at 200 ppm [4]: ≥ 80%
22 | CC(CCO)NC(=O)c1ccc(-c2noc(C(F)(F)F)n2)cc1F (stereo not shown) [Compound 3b.17, 2-fluoro-N-(3-hydroxy-1-methyl-propyl)-4-[5-(trifluoromethyl)-1,2,4-oxadiazol-3-yl]benzamide] | ≥ 80% | – | pest or weed control at 200 ppm [2]: ≥ 80%
23 | Cc1cc(C#N)c(NC(=O)c2ccc(-c3noc(C(F)(F)F)n3)cc2)s1 [Compound 5a.1, N-(3-cyano-5-methyl-2-thienyl)-4-[5-(trifluoromethyl)-1,2,4-oxadiazol-3-yl]benzamide] | ≥ 80% | – | –
